In US20240279215A1 (Cytokinetics, Incorporated, priority 2022, published 2024):
Where a name gives a salt, the structure may show the parent alone.

molecular target: human NAMPT (Homo sapiens (Human), UniProt P43490); experiment: NMN fluorescence biochemical assay (human recombinant NAMPT enzyme assay)
Procedure, shortened: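 NMN formed was detected by fluorescence (Ex/Em 355/460 nm) after acetophenone, KOH and formic acid derivatization. The cell-free reaction ran 60 min at ambient temperature with 6 nM human NAMPT, 150 μM nicotinamide, 20 μM PRPP, 2.5 mM ATP, pH 7.2 HEPES, and compound dose responses.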

human NAMPT, sequence (P43490 whole entry): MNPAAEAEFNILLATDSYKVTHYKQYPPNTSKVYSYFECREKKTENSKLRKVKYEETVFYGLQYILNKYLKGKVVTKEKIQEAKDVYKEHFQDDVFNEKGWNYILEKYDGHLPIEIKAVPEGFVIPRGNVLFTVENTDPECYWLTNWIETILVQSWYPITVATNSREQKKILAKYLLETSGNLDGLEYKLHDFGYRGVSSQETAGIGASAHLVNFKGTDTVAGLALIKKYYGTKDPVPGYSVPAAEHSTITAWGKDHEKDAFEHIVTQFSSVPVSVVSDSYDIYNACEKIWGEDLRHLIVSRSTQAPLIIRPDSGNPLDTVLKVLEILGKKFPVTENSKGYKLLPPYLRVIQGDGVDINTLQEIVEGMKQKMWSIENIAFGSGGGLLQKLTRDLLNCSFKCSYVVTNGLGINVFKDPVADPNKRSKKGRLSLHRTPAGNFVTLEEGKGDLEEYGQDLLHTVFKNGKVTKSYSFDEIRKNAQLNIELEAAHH

SMILES | AC1.4 Human [µM] | EC50 [µM]
O=C(Nc1ccc(Cc2ccncc2)cc1)OCc1ccns1 [Compound 219, isothiazol-5-ylmethyl (4-(pyridin-4-ylmethyl)phenyl)carbamate] | 2.03 | 20.6
O=C(Nc1ccc(CC(=O)N2CCOCC2)cc1)OCc1ccc(Cl)cc1 [Compound 220, (4-chlorophenyl)methyl N-{4-[2-(morpholin-4-yl)-2-oxoethyl]phenyl}carbamate] | 2.03 | 32.5
O=C(Cc1ccc(NC(=O)OCc2ccc(Cl)cc2)cc1)N[C@H]1CC[C@H](OC(F)F)CC1 [Compound 221, (4-chlorophenyl)methyl N-[4-({[(1r,4r)-4-(difluoromethoxy)cyclohexyl]carbamoyl}methyl)phenyl]carbamate] | 2.04 | 2.16
CS(=O)(=O)C1CN(Cc2ccc(NC(=O)OCc3ccc(Cl)cc3)cc2)C1 [Compound 222, (4-chlorophenyl)methyl N-{4-[(3-methanesulfonylazetidin-1-yl)methyl]phenyl}carbamate] | 2.05 | 27.6
O=C(Nc1ccc(CN2CCN(C3COC3)CC2)cc1)OCc1ccc(Cl)cc1 [Compound 223, (4-chlorophenyl)methyl N-(4-{[4-(oxetan-3-yl)piperazin-1-yl]methyl}phenyl)carbamate] | 2.05 | 17.6
C[C@H](NC(=O)Cc1ncco1)c1ccc(NC(=O)OCc2ccc(Cl)cc2)cc1 [Compound 224, 4-chlorobenzyl (S)-(4-(1-(2-(oxazol-2-yl)acetamido)ethyl)phenyl)carbamate] | 2.08 | 10.1
Cc1cc(C(=O)NCc2ccc(NC(=O)OCc3ccc(Cl)cc3)cc2)n(C)n1 [Compound 225, (4-chlorophenyl)methyl N-(4-{[(2,5-dimethylpyrazol-3-yl)formamido]methyl}phenyl)carbamate] | 2.08 | 9.1
O=C(Nc1ccc(CNC(=O)c2cnccn2)cc1)OCc1ccc(Cl)cc1 [Compound 226, (4-chlorophenyl)methyl N-{4-[(pyrazin-2-ylformamido)methyl]phenyl}carbamate] | 2.09 | 6.14
Cc1ccc(C(=O)NCc2ccc(NC(=O)OCc3ccc(F)cc3)cc2)cn1 [Compound 227, 4-fluorobenzyl (4-((6-methylnicotinamido)methyl)phenyl)carbamate] | 2.11 | 3.47
CN1CC[C@H](NCc2ccc(NC(=O)OCc3ccc(Cl)cc3)cc2)C1=O [Compound 228, 4-chlorobenzyl (S)-(4-(((1-methyl-2-oxopyrrolidin-3-yl)amino)methyl)phenyl)carbamate] | 2.11 | 21.4
CO[C@@H]1CCCN(C(=O)Cc2ccc(NC(=O)OCc3ccc(Cl)cc3)cc2)C1 [Compound 229, (4-chlorophenyl)methyl N-(4-{2-[(3R)-3-methoxypiperidin-1-yl]-2-oxoethyl}phenyl)carbamate] | 2.13 | 12.8
C[C@H](NC(=O)[C@H]1C[C@@H]2[C@H](C1)C2(F)F)c1ccc(NC(=O)OCc2cnco2)cc1 [Compound 230, 1,3-oxazol-5-ylmethyl N-{4-[(1S)-1-{[(1R,3r,5S)-6,6-difluorobicyclo[3.1.0]hexan-3-yl]formamido}ethyl]phenyl}carbamate] | 2.13 | 15.3
O=C(Nc1ccc(CC2CCNCC2)cc1)OCc1ccc(Cl)cc1 [Compound 231, 4-chlorobenzyl (4-(piperidin-4-ylmethyl)phenyl)carbamate hydrochloride] | 2.13 | 33.8
O=C(Nc1ccc(Cc2ccccn2)cc1)OCc1ccc(Cl)cc1 [Compound 233, 4-chlorobenzyl (4-(pyridin-2-ylmethyl)phenyl)carbamate] | 2.18 | 7.8
CC(C)c1ccc(C(=O)NCc2ccc(NC(=O)OCc3ccc(Cl)cc3)cc2)cn1 [Compound 234, (4-chlorophenyl)methyl N-(4-{[(6-isopropylpyridin-3-yl)formamido]methyl}phenyl)carbamate] | 2.19 | 3.38
O=C1CN(C(=O)Cc2ccc(NC(=O)OCc3ccc(Cl)cc3)cc2)CCN1 [Compound 235, (4-chlorophenyl)methyl N-{4-[2-oxo-2-(3-oxopiperazin-1-yl)ethyl]phenyl}carbamate] | 2.22 | 44.9
O=C1CN(C2CCC2)[C@@H](c2ccc(NC(=O)OCc3ccc(Cl)cc3)cc2)CN1 [Compound 236, 4-chlorobenzyl (S)-(4-(1-cyclobutyl-5-oxopiperazin-2-yl)phenyl)carbamate] | 2.25 | 50.6
O=C(Nc1ccc(CC(=O)N2CCC[C@@H](O)C2)cc1)OCc1ccc(Cl)cc1 [Compound 237, (4-chlorophenyl)methyl N-(4-{2-[(3R)-3-hydroxypiperidin-1-yl]-2-oxoethyl}phenyl)carbamate] | 2.25 | 32.3
O=C(Nc1ccc(CNC(=O)c2ccnn2C2CCOCC2)cc1)OCc1ccc(Cl)cc1 [Compound 238, (4-chlorophenyl)methyl N-[4-({[2-(oxan-4-yl)pyrazol-3-yl]formamido}methyl)phenyl]carbamate] | 2.29 | 10.6
O=C(Nc1ccc(CNC(=O)c2ccc(C(F)(F)F)nc2)cc1)OCc1ccc(Cl)cc1 [Compound 239, (4-chlorophenyl)methyl N-[4-({[6-(trifluoromethyl)pyridin-3-yl]formamido}methyl)phenyl]carbamate] | 2.32 | 1.89
CC1CCN(C(=O)Cc2ccc(NC(=O)OCc3ccc(Cl)cc3)cc2)CC1 [Compound 240, (4-chlorophenyl)methyl N-{4-[2-(4-methylpiperidin-1-yl)-2-oxoethyl]phenyl}carbamate] | 2.33 | 2.73
Cc1ocnc1C(=O)N[C@@H](C)c1ccc(NC(=O)OCc2ccc(Cl)cc2)cc1 [Compound 241, (4-chlorophenyl)methyl N-{4-[(1S)-1-[(5-methyl-1,3-oxazol-4-yl)formamido]ethyl]phenyl}carbamate] | 2.37 | 11.8
O=C(Nc1ccc(CN2CCOC2=O)cc1)OCc1ccc(Cl)cc1 [Compound 242, (4-chlorophenyl)methyl N-{4-[(2-oxo-1,3-oxazolidin-3-yl)methyl]phenyl}carbamate] | 2.38 | 19.8

Other lines, results leading:

AC1.4 Human [µM] | EC50 [µM] | SMILES
2.38 | 26.3 | Cc1coc(C(=O)N[C@@H](C)c2ccc(NC(=O)OCc3ccc(Cl)cc3)cc2)n1 [Compound 243, 4-chlorobenzyl (S)-(4-(1-(4-methyloxazole-2-carboxamido)ethyl)phenyl)carbamate]
2.39 | 5.67 | C[C@H]1CCN(C(=O)Cc2ccc(NC(=O)OCc3ccc(Cl)cc3)cc2)C1 [Compound 244, (4-chlorophenyl)methyl N-(4-{2-[(3S)-3-methylpyrrolidin-1-yl]-2-oxoethyl}phenyl)carbamate]
2.39 | 6.35 | COc1nc(C)ccc1C(=O)NCc1ccc(NC(=O)OCc2ccc(Cl)cc2)cc1 [Compound 245, (4-chlorophenyl)methyl N-(4-{[(2-methoxy-6-methylpyridin-3-yl)formamido]methyl}phenyl)carbamate]
2.43 | 6.14 | C[C@H](NC(=O)c1cnco1)c1ccc(NC(=O)OCc2ccc(Cl)cc2)cc1 [Compound 246, 4-chlorobenzyl (S)-(4-(1-(oxazole-5-carboxamido)ethyl)phenyl)carbamate]
2.45 | 16.5 | CC(O)(c1ccncc1)c1ccc(NC(=O)OCc2ccc(Cl)cc2)cc1 (stereo not shown) [Compound 247, 4-chlorobenzyl (4-(1-hydroxy-1-(pyridin-4-yl)ethyl)phenyl)carbamate]
2.51 | 2.4 | O=C(Nc1ccc(CNC(=O)c2cccnn2)cc1)OCc1ccc(Cl)cc1 [Compound 248, (4-chlorophenyl)methyl N-{4-[(pyridazin-3-ylformamido)methyl]phenyl}carbamate]
2.58 | 21.3 | CN(Cc1ccc(NC(=O)OCc2ccc(Cl)cc2)cc1)C(=O)c1cncc(F)c1 [Compound 250, (4-chlorophenyl)methyl N-(4-{[1-(5-fluoropyridin-3-yl)-N-methylformamido]methyl}phenyl)carbamate]
2.59 | 11 | Cc1nocc1C(=O)NCc1ccc(NC(=O)OCc2ccc(Cl)cc2)cc1 [Compound 251, (4-chlorophenyl)methyl N-(4-{[(3-methyl-1,2-oxazol-4-yl)formamido]methyl}phenyl)carbamate]
2.60 | 26.2 | O=C(Nc1ccc(CCC2CCNCC2)cc1)OCc1cnco1 [Compound 252, oxazol-5-ylmethyl (4-(2-(piperidin-4-yl)ethyl)phenyl)carbamate hydrochloride]
2.62 | 17.9 | COc1cnn(C)c1C(=O)N(C)Cc1ccc(NC(=O)OCc2ccc(Cl)cc2)cc1 [Compound 253, (4-chlorophenyl)methyl N-(4-{[1-(4-methoxy-2-methylpyrazol-3-yl)-N-methylformamido]methyl}phenyl)carbamate]
2.64 | 15.1 | Cn1ccc(C(=O)NCc2ccc(NC(=O)OCc3ccc(Cl)cc3)cc2)c1 [Compound 254, (4-chlorophenyl)methyl N-(4-{[(1-methylpyrrol-3-yl)formamido]methyl}phenyl)carbamate]
2.65 | 31.7 | Cn1ccc(C(=O)NCc2ccc(NC(=O)OCc3ccc(Cl)cc3)cc2)n1 [Compound 255, (4-chlorophenyl)methyl N-(4-{[(1-methylpyrazol-3-yl)formamido]methyl}phenyl)carbamate]
